The target of the assay is T1, Ba/F3 cell EGFR Exon20 ins NPH (Homo sapiens, UniProt P00533, INS773NPH).
T1 construct: expressed in transfected cells; host or cells: Ba/F3
The assay can be described thus: Ba/F3 cell proliferation suppression, EGFR Exon20 ins NPH. It counts as cell-based. The conditions noted are these: GI50 class; Ba/F3 cell line with NPH inserted at Exon20 of EGFR; 72 hours. Put shortly: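 72 h compound exposure, 0.3 nM–50 um (12 points, 3:1 dilution in DMSO); viability by CellTiter-Glo luminescence. Ba/F3 medium: RPMI-1640, 10% FBS, 5 ng/ml IL-3, 1 ug/ml puromycin for transduced cells. GI50 vs control, n=3.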
For the molecule `C=CC(=O)Nc1cc(Nc2cc(N3OCC[C@@H]3Cc3cccc(Cl)c3OC)ncn2)c(OC)cc1N1CCC(N2CCN(C3CC3)CC2)CC1` [compound 1054, N-(5-((6-((S)-3-(3-chloro-2-methoxybenzyl)isoxazolidine-2-yl)pyrimidine-4-yl)amino)-2-(4-(4-cyclopropylpiperazine-1-yl)piperidine-1-yl)-4-methoxyphenyl) acrylamide], the “Ba/F3 (NPH) Activity” value is “A (GI50 < 50 nM)”. In the case of `C=CC(=O)Nc1cc(Nc2cc(N3OCC[C@@H]3c3ccc(F)c(Cl)c3)ncn2)c(OC)cc1N1CCC(N2CCO[C@@H](C)C2)CC1` [compound 873, N-(5-((6-((R)-3-(3-chloro-4-fluorophenyl)isoxazolidine-2-yl)pyrimidine-4-yl)amino)-4-methoxy-2-(4-((S)-2-methylmorpholino)piperidine-1-yl)phenyl) acrylamide], the “Ba/F3 (NPH) Activity” value is on record as “A (GI50 < 50 nM)”. As to `C=CC(=O)Nc1cc(Nc2cc(N3OCC[C@@H]3c3cccc(Cl)c3C)ncn2)c(OC)cc1N1CCC(N2CCN(CCC)CC2)CC1` [compound 582, N-(5-((6-((R)-3-(3-chloro-2-methylphenyl)isoxazolidine-2-yl)pyrimidine-4-yl)amino)-4-methoxy-2-(4-(4-propylpiperazine-1-yl)piperidine-1-yl)phenyl) acrylamide], the “Ba/F3 (NPH) Activity” value is listed as “A (GI50 < 50 nM)”. For `C=CC(=O)Nc1cc(Nc2cc(N3OCC[C@@H]3c3ccc(F)c(F)c3F)ncn2)c(OC)cc1N1CCC(N2CCN(C)CC2)CC1` [compound 620, N-(4-methoxy-2-(4-(4-methylpiperazine-1-yl)piperidine-1-yl)-5-((6-((R)-3-(2,3,4-trifluorophenyl)isoxazolidine-2-yl)pyrimidine-4-yl)amino)phenyl)acrylamide], the “Ba/F3 (NPH) Activity” value is recorded as “A (GI50 < 50 nM)”. As to `C=CC(=O)Nc1cc(Nc2cc(N3OCC[C@@H]3c3ccc(F)c(F)c3)ncn2)c(OC)cc1N1CCC(N(C)C)CC1` [compound 459, N-(5-((6-((R)-3-(3,4-difluorophenyl)isoxazolidine-2-yl)pyrimidine-4-yl)amino)-2-(4-(dimethylamino)piperidine-1-yl)-4-methoxyphenyl) acrylamide], the “Ba/F3 (NPH) Activity” value is recorded as “A (GI50 < 50 nM)”.

On to `C=CC(=O)Nc1cc(Nc2cc(N3OCC[C@@H]3c3cccc(F)c3F)ncn2)c(OC)cc1N1CCC(N2CCN(C3CC3)[C@@H](C)C2)CC1` [Example 175, N-(2-(4-((S)-4-cyclopropyl-3-methylpiperazine-1-yl)piperidine-1-yl)-5-((6-((R)-3-(2,3-difluorophenyl)isoxazolidine-2-yl)pyrimidine-4-yl)amino)-4-methoxyphenyl) acrylamide], for which the “Ba/F3 (NPH) Activity” value is “A (GI50 < 50 nM)”. Take `C=CC(=O)Nc1cc(Nc2cc(N3OCC[C@@H]3c3ccc(F)cc3F)ncn2)c(OC)cc1N1CCN(CCN(C)C)CC1` [compound 349, N-(5-((6-((R)-3-(2,4-difluorophenyl)isoxazolidine-2-yl)pyrimidine-4-yl)amino)-2-(4-(2-(dimethylamino)ethyl)piperazine-1-yl)-4-methoxyphenyl) acrylamide]: the “Ba/F3 (NPH) Activity” value is given as “A (GI50 < 50 nM)”. On to `C=CC(=O)Nc1cc(Nc2cc(N3OCC[C@@H]3c3cc(F)ccc3F)ncn2)c(OC)cc1N1CCC(N2CCN(C)[C@@H](C)C2)CC1` [compound 850, N-(5-((6-((R)-3-(2,5-difluorophenyl)isoxazolidine-2-yl)pyrimidine-4-yl)amino)-2-(4-((S)-3,4-dimethylpiperazine-1-yl)piperidine-1-yl)-4-methoxyphenyl) acrylamide], for which the “Ba/F3 (NPH) Activity” value is recorded as “A (GI50 < 50 nM)”. On to `C=CC(=O)Nc1cc(Nc2cc(N3OCC[C@@H]3Cc3cccc(Cl)c3Cl)ncn2)c(OC)cc1N1CCN(CC)CC1` [compound 1008, N-(5-((6-((S)-3-(2,3-dichlorobenzyl)isoxazolidine-2-yl)pyrimidine-4-yl)amino)-2-(4-ethylpiperazine-1-yl)-4-methoxyphenyl) acrylamide], for which the “Ba/F3 (NPH) Activity” value is given as “A (GI50 < 50 nM)”.

Take `C=CC(=O)Nc1cc(Nc2cc(N3OCC[C@@H]3c3cc(F)cc(F)c3)ncn2)c(OC)cc1N1CCC(N2CCN(C)C[C@H]2C)CC1` [compound 761, N-(5-((6-((R)-3-(3,5-difluorophenyl)isoxazolidine-2-yl)pyrimidine-4-yl)amino)-2-(4-((R)-2,4-dimethylpiperazine-1-yl)piperidine-1-yl)-4-methoxyphenyl) acrylamide]: the “Ba/F3 (NPH) Activity” value was “A (GI50 < 50 nM)”. With `C=CC(=O)Nc1cc(Nc2cc(N3OCC[C@@H]3Cc3ccc(C(F)(F)F)cc3)ncn2)c(OC)cc1N1CCC(N2C[C@@H]3C[C@H]2CO3)CC1` [compound 1052, N-(2-(4-((1S,4S)-2-oxa-5-azabicyclo [2.2.1]heptane-5-yl)piperidine-1-yl)-4-methoxy-5-((6-((S)-3-(4-(trifluoromethyl)benzyl)isoxazolidine-2-yl)pyrimidine-4-yl)amino)phenyl) acrylamide], the “Ba/F3 (NPH) Activity” value is “A (GI50 < 50 nM)”. As for `C=CC(=O)Nc1cc(Nc2cc(N3OCC[C@@H]3c3ccc(F)cc3F)ncn2)c(OC)cc1N1CCC(N2C[C@H]3C[C@@H]2CO3)CC1` [compound 423, N-(2-(4-((1R,4R)-2-oxa-5-azabicyclo [2.2.1]heptane-5-yl)piperidine-1-yl)-5-((6-((R)-3-(2,4-difluorophenyl)isoxazolidine-2-yl)pyrimidine-4-yl)amino)-4-methoxyphenyl) acrylamide], the entry is “A (GI50 < 50 nM)”; as for `C=CC(=O)Nc1cc(Nc2cc(N3OCC[C@@H]3c3cccc(C)c3F)ncn2)c(OC)cc1N1CCC(N2CCN(C3CCC3)CC2)CC1` [Example 78, N-(2-(4-(4-cyclobutylpiperazine-1-yl)piperidine-1-yl)-5-((6-((R)-3-(2-fluoro-3-methylphenyl)isoxazolidine-2-yl)pyrimidine-4-yl)amino)-4-methoxyphenyl) acrylamide], “A (GI50 < 50 nM)”.

Take `C=CC(=O)Nc1cc(Nc2cc(N3OCC[C@@H]3c3ccc(F)cc3)ncn2)c(OC)cc1N1CCC(N2CCC(N(C)C)CC2)CC1` [compound 870, N-(2-(4-(dimethylamino)-[1,4'-bipiperidine]-1'-yl)-5-((6-((R)-3-(4-fluorophenyl)isoxazolidine-2-yl)pyrimidine-4-yl)amino)-4-methoxyphenyl) acrylamide]: the “Ba/F3 (NPH) Activity” value was “A (GI50 < 50 nM)”. Regarding `C=CC(=O)Nc1cc(Nc2cc(N3OCC[C@@H]3c3ccccc3)ncn2)c(OC)cc1N1CCN(CCN(C)C)CC1` [Example 278, N-(2-(4-(2-(dimethylamino)ethyl)piperazine-1-yl)-4-methoxy-5-((6-((R)-3-phenylisoxazolidine-2-yl)pyrimidine-4-yl)amino)phenyl) acrylamide], the “Ba/F3 (NPH) Activity” value is reported as “A (GI50 < 50 nM)”. `C=CC(=O)Nc1cc(Nc2cc(N3OCC[C@@H]3c3cccc(C)c3F)ncn2)c(OC)cc1N1CCC(N2C[C@H](C)N(C3CC3)C[C@@H]2C)CC1` [Example 123, N-(2-(4-((2S,5S)-4-cyclopropyl-2,5-dimethylpiperazine-1-yl)piperidine-1-yl)-5-((6-((R)-3-(2-fluoro-3-methylphenyl)isoxazolidine-2-yl)pyrimidine-4-yl)amino)-4-methoxyphenyl) acrylamide]: the “Ba/F3 (NPH) Activity” value is recorded as “A (GI50 < 50 nM)”. As to `C=CC(=O)Nc1cc(Nc2cc(N3OCC[C@@H]3c3ccc(C)nc3)ncn2)c(OC)cc1N1CCN(C2CC2)CC1` [Example 46, N-(2-(4-cyclopropylpiperazine-1-yl)-4-methoxy-5-((6-((R)-3-(6-methylpyridine-3-yl)isoxazolidine-2-yl)pyrimidine-4-yl)amino)phenyl) acrylamide], the “Ba/F3 (NPH) Activity” value is recorded as “C (500 nM ≤ GI50 < 5000 nM)”. As for `C=CC(=O)Nc1cc(Nc2cc(N3OCC[C@@H]3c3cc(F)cc(Cl)c3)ncn2)c(OC)cc1N1CCC(N2C[C@@H]3CCN(C)[C@@H]3C2)CC1` [compound 540, N-(5-((6-((R)-3-(3-chloro-5-fluorophenyl)isoxazolidine-2-yl)pyrimidine-4-yl)amino)-4-methoxy-2-(4-((3aS,6aS)-1-methylhexahydropyrrolo [3,4-b]pyrrole-5(1H)-yl)piperidine-1-yl)phenyl)acrylamide], the entry is “A (GI50 < 50 nM)”. With `C=CC(=O)Nc1cc(Nc2cc(N3OCC[C@@H]3Cc3ccccc3)ncn2)c(OC)cc1N1CCN(C)CC1` [compound 945, N-(5-((6-((S)-3-benzylisoxazolidine-2-yl)pyrimidine-4-yl)amino)-4-methoxy-2-(4-methylpiperazine-1-yl)phenyl)acrylamide], the “Ba/F3 (NPH) Activity” value was “A (GI50 < 50 nM)”. Turning to `C=CC(=O)Nc1cc(Nc2cc(N3OCC[C@H]3c3c(F)ccc(F)c3Cl)ncn2)c(OC)cc1N1CCC(N2CCN(C3CC3)CC2)CC1` [compound 936, N-(5-((6-((S)-3-(2-chloro-3,6-difluorophenyl)isoxazolidine-2-yl)pyrimidine-4-yl)amino)-2-(4-(4-cyclopropylpiperazine-1-yl)piperidine-1-yl)-4-methoxyphenyl) acrylamide], the “Ba/F3 (NPH) Activity” value was “B (50 nM ≤ GI50 < 500 nM)”. Regarding `C=CC(=O)Nc1cc(Nc2cc(N3OCC[C@@H]3c3cccc(C#N)c3)ncn2)c(OC)cc1N1CCC(N2CCN(CCC)CC2)CC1` [compound 432, N-(5-((6-((R)-3-(3-cyanophenyl)isoxazolidine-2-yl)pyrimidine-4-yl)amino)-4-methoxy-2-(4-(4-propylpiperazine-1-yl)piperidine-1-yl)phenyl) acrylamide], the “Ba/F3 (NPH) Activity” value is “A (GI50 < 50 nM)”.

For `C=CC(=O)Nc1cc(Nc2cc(N3OCC[C@@H]3c3cccc(C#N)c3)ncn2)c(OC)cc1N1CCC(N2CCN(C3CC3)CC2)CC1` [Example 141, N-(5-((6-((R)-3-(3-cyanophenyl)isoxazolidine-2-yl)pyrimidine-4-yl)amino)-2-(4-(4-cyclopropylpiperazine-1-yl)piperidine-1-yl)-4-methoxyphenyl) acrylamide], the “Ba/F3 (NPH) Activity” value is reported as “A (GI50 < 50 nM)”.

The record behind these values is US12157730B2, “Heteroaryl derivative, method for producing same, and pharmaceutical composition comprising same as effective component” (VORONOI INC., priority 2019, dated 2024).
